According to PMC7031696 (Cell chemical biology, 2019):
Read-outs that look alike come from different tables or passages of the source.

Assays:
[1] = test system: Plasmodium falciparum 3D7-A10 parasites; assay: Stage specificity assay (8-h exposure of synchronized stages, IC50^8h); type: cell-based; conditions: for IC50: Plasmodium falciparum
[2] = test system: asynchronous 3D7-A10 parasite cultures; assay: Standard 72-h exposure asexual blood stage susceptibility assay (IC50^72h); type: cell-based, Plasmodium falciparum; conditions: Plasmodium falciparum, 3D7, 72 h, read-out: Overall (72hr assay) Mean IC50 (IC50^72h)
[3] = test system: 3D7-MR4 trophozoite parasite-infected RBCs; assay: Metabolomic profiling (hydrophilic metabolite changes, UHPLC-MS); type: cell-based, Plasmodium falciparum

## CNc1nc(NCCCN(C)C)c2sc(-c3cccc(C(F)(F)F)c3)cc2n1 [MMV668311]
[1]; 3D7-A10
  Ratio lowest IC50 8hr/IC50 72hr: 1.1
[1]; 3D7, read-out: Early rings Mean IC50 (IC50^8h), 8-h exposure 0–8 hr, 3D7-A10, survival at 60 h
  IC50: 140 nM
[1]; 3D7, read-out: Early trophozoites Mean IC50 (IC50^8h), 8-h exposure 16–24 hr, 3D7-A10, survival at 60 h
  IC50: 68.9 nM
[1]; 3D7, read-out: Late rings Mean IC50 (IC50^8h), 8-h exposure 8–16 hr, 3D7-A10, survival at 60 h
  IC50: 97.7 nM
[1]; 3D7, read-out: Late trophozoites Mean IC50 (IC50^8h), 8-h exposure 24–32 hr, 3D7-A10, survival at 60 h
  IC50: 122 nM
[1]; 3D7, read-out: Schizonts Mean IC50 (IC50^8h), 8-h exposure 32–40 hr, 3D7-A10, survival at 60 h
  IC50: 382 nM
[1]; period when the parasite was most susceptible (lowest IC50^8h)
  Stage of peak activity (Figure 6): rings and trophozoites
[2]
  IC50: 63.5 nM
[3]; 10 × IC50^72h, 2.5 hr, trophozoites
  changes within the set of metabolites detected (low fold change group): did not induce major changes
[3]; metabolite 3-phosphoglycerate, log2 fold change
  Log2(fold changes) 3-phosphoglycerate: 0.1799
[3]; metabolite 4-Pyridoxic acid, log2 fold change
  Log2(fold changes) 4-Pyridoxic acid: 0.0000
[3]; metabolite 4-aminobutyrate, log2 fold change
  Log2(fold changes) 4-aminobutyrate: 0.0013
[3]; metabolite 4-phosphopantetheine, log2 fold change
  Log2(fold changes) 4-phosphopantetheine: 0.0000
[3]; metabolite 4-phosphopantothenate, log2 fold change
  Log2(fold changes) 4-phosphopantothenate: 0.0507
[3]; metabolite 5-aminopentanoic acid, log2 fold change
  Log2(fold changes) 5-aminopentanoic acid: 0.0000
[3]; metabolite 5-methyl-THF, log2 fold change
  Log2(fold changes) 5-methyl-THF: 0.0000
[3]; metabolite 5-phosphoribosyl-1-pyrophosphate, log2 fold change
  Log2(fold changes) 5-phosphoribosyl-1-pyrophosphate: -0.0449
[3]; metabolite 6-phospho-D-gluconate, log2 fold change
  Log2(fold changes) 6-phospho-D-gluconate: 0.0744
[3]; metabolite HVDD
  Log2(fold change) HVDD: 0.6397
[3]; metabolite Hydroxyisocaproic acid
  Log2(fold change) Hydroxyisocaproic acid: 0.0000
[3]; metabolite IDP
  Log2(fold change) IDP: 0.0000
[3]; metabolite IMP
  Log2(fold change) IMP: 0.0136
[3]; metabolite Inositol
  Log2(fold change) Inositol: 0.0000
[3]; metabolite Isopentyl-PP
  Log2(fold change) Isopentyl-PP: 0.0000
[3]; metabolite L-arginino-succinate
  Log2(fold change) L-arginino-succinate: 0.0000
[3]; metabolite LD
  Log2(fold change) LD: 0.0000
[3]; metabolite Myristoyl/tetradecanoyl-CoA
  Log2(fold change) Myristoyl/tetradecanoyl-CoA: 0.0000
[3]; metabolite N-Acetyl-L-alanine
  Log2(fold change) N-Acetyl-L-alanine: 0.2894
[3]; metabolite N-acetyl-L-ornithine
  Log2(fold change) N-acetyl-L-ornithine: 0.9240
[3]; metabolite N-acetyl-glucosamine-1/6-phosphate
  Log2(fold change) N-acetyl-glucosamine-1/6-phosphate: -0.0813
[3]; metabolite N-acetyl-glutamate
  Log2(fold change) N-acetyl-glutamate: 0.1520
[3]; metabolite N-acetyl-glutamine
  Log2(fold change) N-acetyl-glutamine: 0.0000
[3]; metabolite N-carbamoyl-L-aspartate
  Log2(fold change) N-carbamoyl-L-aspartate: 0.0640
[3]; metabolite NAD+
  Log2(fold change) NAD+: 0.0000
[3]; metabolite NADH
  Log2(fold change) NADH: 0.1408
[3]; metabolite NADP+
  Log2(fold change) NADP+: -0.0507
[3]; metabolite NADPH
  Log2(fold change) NADPH: 0.0063
[3]; metabolite O-acetyl-L-serine
  Log2(fold change) O-acetyl-L-serine: 0.0000
[3]; metabolite Octoluse 8/1P
  Log2(fold change) Octoluse 8/1P: 0.0000
[3]; metabolite Octoluse Bisphosphate
  Log2(fold change) Octoluse Bisphosphate: -0.0578
[3]; metabolite PD
  Log2(fold change) PD: -0.3993
[3]; metabolite PE
  Log2(fold change) PE: 0.0346
[3]; metabolite PEE
  Log2(fold change) PEE: 0.4823
[3]; metabolite PEEK
  Log2(fold change) PEEK: 0.0000
[3]; metabolite PVNF
  Log2(fold change) PVNF: 0.0144
[3]; metabolite Pyroglutamic acid
  Log2(fold change) Pyroglutamic acid: 0.0000
[3]; metabolite Pyrophosphate
  Log2(fold change) Pyrophosphate: 0.0000
[3]; metabolite Ribose-5-phosphate
  Log2(fold change) Ribose-5-phosphate: -0.1895
[3]; metabolite S-adenosyl-L-homocysteine
  Log2(fold change) S-adenosyl-L-homocysteine: -0.2447
[3]; metabolite S-adenosyl-L-methioninamine
  Log2(fold change) S-adenosyl-L-methioninamine: 0.0000
[3]; metabolite S-adenosyl-L-methionine
  Log2(fold change) S-adenosyl-L-methionine: 0.0000
[3]; metabolite S-methyl-5'-thioadenosine
  Log2(fold change) S-methyl-5'-thioadenosine: 0.0000
[3]; metabolite SD
  Log2(fold change) SD: 0.2373
[3]; metabolite SDL
  Log2(fold change) SDL: 0.0000
[3]; metabolite SID
  Log2(fold change) SID: 0.1033
[3]; metabolite Sedoheptulose bisphosphate
  Log2(fold change) Sedoheptulose bisphosphate: 0.1946
[3]; metabolite Thiamine pyrophosphate
  Log2(fold change) Thiamine pyrophosphate: 0.0000
[3]; metabolite UDP-D-glucose, log2 fold change
  Log2(fold changes) UDP-D-glucose: 0.0458
[3]; metabolite UDP-D-glucuronate, log2 fold change
  Log2(fold changes) UDP-D-glucuronate: -0.0320
[3]; metabolite UDP-N-acetyl-glucosamine, log2 fold change
  Log2(fold changes) UDP-N-acetyl-glucosamine: -0.0391
[3]; metabolite UDP, log2 fold change
  Log2(fold changes) UDP: -0.7320
[3]; metabolite UMP, log2 fold change
  Log2(fold changes) UMP: -0.3054
[3]; metabolite UTP, log2 fold change
  Log2(fold changes) UTP: 0.0564
[3]; metabolite hydroxyphenylpyruvate
  Log2(fold change) hydroxyphenylpyruvate: 0.0000
[3]; metabolite hydroxyproline/Aminolevulinate
  Log2(fold change) hydroxyproline/Aminolevulinate: 0.0878
[3]; metabolite hypoxanthine
  Log2(fold change) hypoxanthine: 0.2077
[3]; metabolite indole
  Log2(fold change) indole: 0.0000
[3]; metabolite inosine
  Log2(fold change) inosine: 0.0666
[3]; metabolite isoleucine
  Log2(fold change) isoleucine: 0.1965
[3]; metabolite lactate
  Log2(fold change) lactate: 0.0645
[3]; metabolite leucine
  Log2(fold change) leucine: 0.2550
[3]; metabolite lysine
  Log2(fold change) lysine: 0.0000
[3]; metabolite malate
  Log2(fold change) malate: 0.0044
[3]; metabolite maleic acid
  Log2(fold change) maleic acid: -0.0062
[3]; metabolite methionine
  Log2(fold change) methionine: 0.4374
[3]; metabolite myo-inositol
  Log2(fold change) myo-inositol: 0.0000
[3]; metabolite nicotinamide mononucleotide
  Log2(fold change) nicotinamide mononucleotide: 0.0000
[3]; metabolite nicotinate
  Log2(fold change) nicotinate: 0.1094
[3]; metabolite ornithine
  Log2(fold change) ornithine: 0.0000
[3]; metabolite orotate
  Log2(fold change) orotate: -0.2365
[3]; metabolite orotidine-5'-phosphate
  Log2(fold change) orotidine-5'-phosphate: -0.1452
[3]; metabolite oxaloacetate
  Log2(fold change) oxaloacetate: 0.0000
[3]; metabolite p-aminobenzoate
  Log2(fold change) p-aminobenzoate: 0.0000
[3]; metabolite p-hydroxybenzoate
  Log2(fold change) p-hydroxybenzoate: 0.0000
[3]; metabolite pantothenate
  Log2(fold change) pantothenate: -0.0310
[3]; metabolite phenylalanine
  Log2(fold change) phenylalanine: 0.2649
[3]; metabolite phenylpyruvate
  Log2(fold change) phenylpyruvate: 0.0000
[3]; metabolite phosphoenolpyruvate
  Log2(fold change) phosphoenolpyruvate: 0.2026
[3]; metabolite prephenate
  Log2(fold change) prephenate: 0.0000
[3]; metabolite proline
  Log2(fold change) proline: 0.1500
[3]; metabolite pyridoxine
  Log2(fold change) pyridoxine: 0.2387
[3]; metabolite pyruvate
  Log2(fold change) pyruvate: 0.0542
[3]; metabolite riboflavin
  Log2(fold change) riboflavin: 0.0000
[3]; metabolite ribose
  Log2(fold change) ribose: 0.4509
[3]; metabolite ribose-phosphate
  Log2(fold change) ribose-phosphate: -0.2314
[3]; metabolite ribulose-5-phosphate
  Log2(fold change) ribulose-5-phosphate: -0.1585
[3]; metabolite serine
  Log2(fold change) serine: 0.1402
[3]; metabolite sn-glycerol-3-phosphate
  Log2(fold change) sn-glycerol-3-phosphate: 0.1282
[3]; metabolite succinate/Methylmalonic acid
  Log2(fold change) succinate/Methylmalonic acid: 0.1707
[3]; metabolite succinyl-CoA/methylmalonyl-CoA
  Log2(fold change) succinyl-CoA/methylmalonyl-CoA: 0.2947
[3]; metabolite taurine
  Log2(fold change) taurine: 0.0000
[3]; metabolite thiamine
  Log2(fold change) thiamine: 0.0000
[3]; metabolite threonine/homoserine
  Log2(fold change) threonine/homoserine: 0.3600
[3]; metabolite thymidine
  Log2(fold change) thymidine: 0.0000
[3]; metabolite thymine, log2 fold change
  Log2(fold changes) thymine: 0.0000
[3]; metabolite trehalose-6-Phosphate, log2 fold change
  Log2(fold changes) trehalose-6-Phosphate: 0.0000
[3]; metabolite tryptophan, log2 fold change
  Log2(fold changes) tryptophan: 0.2172
[3]; metabolite tyrosine, log2 fold change
  Log2(fold changes) tyrosine: 0.2350
[3]; metabolite uridine, log2 fold change
  Log2(fold changes) uridine: 0.0000
